Results: US12404244B2, “Pan-KIT kinase inhibitor having quinoline structure and application thereof” (Tarapeutics Science Inc., priority 2018, dated 2025)

Legend:
[1] = tested on: TEL-KIT/V654A-BaF3; assay: Proliferation of TEL-KIT/V654A-BaF3 cells (CCK-8); format: cell-based; conditions: Mus musculus; 72 hours, CCK-8; read-out: GI50 TEL-KIT/V654A-BaF3
From the text: (§1) Compounds as provided herein were further evaluated for their inhibitory effects on proliferation of cancer cells by testing their effects on growth of cancer cells. In this example the following cells were used: primary mouse B cells BaF3 (purchased from ATCC), GIST-T1 cells of the human gastrointestinal stromal tumor cell line (expressing wild-type KIT gene) (purchased from Cosmo Bio Co., Ltd. (Japan)). The present lab further constructed and used the following: mouse Tel-Kit-BaF3 (stably expressing KIT wild-type kinase), mouse Tel-Kit/T670I-BaF3 (stably expressing KIT T670I mutant kinase), mouse Tel-Kit/V559A-BaF3 (stably expressing KIT V559A mutant kinase), mouse Tel-Kit/V559D-BaF3 (stably expressing KIT V559D mutant kinase), mouse Tel-Kit/V559G-BaF3 (stably expressing KIT V559G mutant kinase), mouse Tel-Kit/V560D-BaF3 (stably expressing KIT V560D mutant kinase), mouse Tel-Kit/L576P-BaF3 (stably expressing KIT L576P mutant kinase), mouse Tel-Kit/V654A-BaF3 (stably expressing KIT V654A mutant kinase), mouse Tel-Kit/V654A/V559D-BaF3 (stably expressing KIT V654A V559D mutant kinase), mouse Tel-Kit/T670E-BaF3 (stably expressing KIT T670E mutant kinase), mouse Tel-Kit/T670I/V559D-BaF3 (stably expressing KIT T670I V559D mutant kinase), mouse Tel-Kit/S709F-BaF3 (stably expressing KIT S709F mutant kinase), mouse Tel-Kit/D816E-BaF3 (stably expressing KIT D816E mutant kinase), mouse Tel-Kit/D816H-BaF3 (stably expressing KIT D816H mutant kinase), mouse Tel-Kit/D820E-BaF3 (stably expressing KIT D820E mutant kinase), mouse Tel-Kit/D820G-BaF3 (stably expressing KIT D820G mutant kinase), mouse Tel-Kit/D820Y-BaF3 (stably expressing KIT D820Y mutant kinase), mouse Tel-Kit/N822K-BaF3 (stably expressing KIT N822K mutant kinase), mouse Tel-Kit/Y823D-BaF3 (stably expressing KIT Y823D mutant kinase), mouse Tel-Kit/A829P-BaF3 (stably expressing KIT A829P mutant kinase), GIST-T1-T670I cells of the human gastrointestinal stromal tumor cell line (expressing KIT-T670I mutant gene). The above cell lines were constructed by: amplifying respectively the sequences of human KIT and various mutant kinase regions of KIT via PCR, inserting the fragments respectively into MSCV-Puro vectors having a N-terminal TEL fragment and/or a NPM fragment and/or a TPR fragment (purchased from Clontech), transfecting mouse BaF3 cells with the vectors by means of retrovirus to obtain stably transfected cells, removing the growth factor IL-3, and thereby eventually obtaining cell lines that depend on the transferred protein KIT or various mutants of KIT. […]

[2] = tested on: TEL-KIT/D816H-BaF3; assay: Proliferation of TEL-KIT/D816H-BaF3 cells (CCK-8); format: cell-based; conditions: Mus musculus; 72 hours, CCK-8; read-out: GI50 TEL-KIT/D816H-BaF3
From the text: as §1

[3] = tested on: TEL-KIT/V560D-BaF3; assay: Proliferation of TEL-KIT/V560D-BaF3 cells (CCK-8); format: cell-based; conditions: Mus musculus; 72 hours, CCK-8; read-out: GI50 TEL-KIT/V560D-BaF3
From the text: as §1

[4] = tested on: GIST-T1/T670I; assay: Proliferation of GIST-T1/T670I cells (CCK-8); format: cell-based; conditions: Homo sapiens, GISTT1; 72 hours, CCK-8; read-out: GI50 GIST-T1/T670I
From the text: as §1, with “gene).” for “gene). The above cell lines were constructed by: amplifying respectively the sequences of human KIT and various mutant kinase regions of KIT via PCR, inserting the fragments respectively into MSCV-Puro vectors having a N-terminal TEL fragment and/or a NPM fragment and/or a TPR fragment (purchased from Clontech), transfecting mouse BaF3 cells with the vectors by means of retrovirus to obtain stably transfected cells, removing the growth factor IL-3, and thereby eventually obtaining cell lines that depend on the transferred protein KIT or various mutants of KIT.”
(§2) The cells after incubation were detected using CCK-8 (purchased from MedChem Express, Shanghai, China) cell viability assay kit (CCK-8 may be reduced by dehydrogenase in living cells to a highly water-soluble yellow formazan product, and the amount of the resultant formazan is proportional to the number of living cells), the number of living cells were quantified with a microplate reader, and GI50 of the compounds and the control compounds were calculated (the results shown in Table 2 and Table 3).

[5] = tested on: TEL-KIT/A829P-BaF3; assay: Proliferation of TEL-KIT/A829P-BaF3 cells (CCK-8); format: cell-based; conditions: Mus musculus; 72 hours, CCK-8; read-out: GI50 TEL-KIT/A829P-BaF3
From the text: as §1

[6] = tested on: TEL-KIT/N822K-BaF3; assay: Proliferation of TEL-KIT/N822K-BaF3 cells (CCK-8); format: cell-based; conditions: Mus musculus; 72 hours, CCK-8; read-out: GI50 TEL-KIT/N822K-BaF3
From the text: as §1

[7] = tested on: GIST-T1; assay: Proliferation of GIST-T1 cells (CCK-8); format: cell-based; conditions: Homo sapiens, GISTT1; 72 hours, CCK-8; read-out: GI50 GIST-T1
From the text: as §1, with “gene).” for “gene). The above cell lines were constructed by: amplifying respectively the sequences of human KIT and various mutant kinase regions of KIT via PCR, inserting the fragments respectively into MSCV-Puro vectors having a N-terminal TEL fragment and/or a NPM fragment and/or a TPR fragment (purchased from Clontech), transfecting mouse BaF3 cells with the vectors by means of retrovirus to obtain stably transfected cells, removing the growth factor IL-3, and thereby eventually obtaining cell lines that depend on the transferred protein KIT or various mutants of KIT.”
as §2

[8] = tested on: TEL-KIT/D820Y-BaF3; assay: Proliferation of TEL-KIT/D820Y-BaF3 cells (CCK-8); format: cell-based; conditions: Mus musculus; 72 hours, CCK-8; read-out: GI50 TEL-KIT/D820Y-BaF3
From the text: as §1

[9] = tested on: TEL-KIT/D816E-BaF3; assay: Proliferation of TEL-KIT/D816E-BaF3 cells (CCK-8); format: cell-based; conditions: Mus musculus; 72 hours, CCK-8; read-out: GI50 TEL-KIT/D816E-BaF3
From the text: as §1

[10] = tested on: TEL-KIT/V559D-BaF3; assay: Proliferation of TEL-KIT/V559D-BaF3 cells (CCK-8); format: cell-based; conditions: Mus musculus; 72 hours, CCK-8; read-out: GI50 TEL-KIT/V559D-BaF3
From the text: as §1

[11] = tested on: TEL-KIT/T670I-BaF3; assay: Proliferation of TEL-KIT/T670I-BaF3 cells (CCK-8); format: cell-based, mouse; conditions: Mus musculus; 72 hours, CCK-8; read-out: GI50 TEL-KIT/T670I-BaF3
From the text: Compounds as provided herein were further evaluated for their inhibitory effects on proliferation of cancer cells by testing their effects on growth of cancer cells. In this example the following cells were used: primary mouse B cells BaF3 (purchased from ATCC), GIST-T1 cells of the human gastrointestinal stromal tumor cell line (expressing wild-type KIT gene) (purchased from Cosmo Bio Co., Ltd. (Japan)). The present lab further constructed and used the following: mouse Tel-Kit-BaF3 (stably expressing KIT wild-type kinase), mouse Tel-Kit/T670I-BaF3 (stably expressing KIT T670I mutant kinase), mouse Tel-Kit/V559A-BaF3 (stably expressing KIT V559A mutant kinase), mouse Tel-Kit/V559D-BaF3 (stably expressing KIT V559D mutant kinase), mouse Tel-Kit/V559G-BaF3 (stably expressing KIT V559G mutant kinase), mouse Tel-Kit/V560D-BaF3 (stably expressing KIT V560D mutant kinase), mouse Tel-Kit/L576P-BaF3 (stably expressing KIT L576P mutant kinase), mouse Tel-Kit/V654A-BaF3 (stably expressing KIT V654A mutant kinase), mouse Tel-Kit/V654A/V559D-BaF3 (stably expressing KIT V654A V559D mutant kinase), mouse Tel-Kit/T670E-BaF3 (stably expressing KIT T670E mutant kinase), mouse Tel-Kit/T670I/V559D-BaF3 (stably expressing KIT T670I V559D mutant kinase), mouse Tel-Kit/S709F-BaF3 (stably expressing KIT S709F mutant kinase), mouse Tel-Kit/D816E-BaF3 (stably expressing KIT D816E mutant kinase), mouse Tel-Kit/D816H-BaF3 (stably expressing KIT D816H mutant kinase), mouse Tel-Kit/D820E-BaF3 (stably expressing KIT D820E mutant kinase), mouse Tel-Kit/D820G-BaF3 (stably expressing KIT D820G mutant kinase), mouse Tel-Kit/D820Y-BaF3 (stably expressing KIT D820Y mutant kinase), mouse Tel-Kit/N822K-BaF3 (stably expressing KIT N822K mutant kinase), mouse Tel-Kit/Y823D-BaF3 (stably expressing KIT Y823D mutant kinase), mouse Tel-Kit/A829P-BaF3 (stably expressing KIT A829P mutant kinase), GIST-T1-T670I cells of the human gastrointestinal stromal tumor cell line (expressing KIT-T670I mutant gene). The above cell lines were constructed by: amplifying respectively the sequences of human KIT and various mutant kinase regions of KIT via PCR, inserting the fragments respectively into MSCV-Puro vectors having a N-terminal TEL fragment and/or a NPM fragment and/or a TPR fragment (purchased from Clontech), transfecting mouse BaF3 cells with the vectors by means of retrovirus to obtain stably transfected cells, removing the growth factor IL-3, and thereby eventually obtaining cell lines that depend on the transferred protein KIT or various mutants of KIT. The GIST-T1-T670I (expressing C-KIT-T670I mutant gene) cell line was constructed by our laboratory as follows: designing sgRNA that targeted a region around T670 of the KIT gene with CRISPR Design Tool (website: crispr.mit.edu, Zhang Feng Lab), cloning it into pSpCas9(BB)-2A-Puro vector; co-transfecting cells with the resultant vector and a single-stranded oligonucleotide having T670I site mutation that is near to T670, subjecting the resultant to antibiotics screening, followed by dilution, and monocellular culture in a 96-well plate; validating the site T670 of the cells by sequence detection via Sanger sequencing.

[12] = tested on: TEL-KIT/V559G-BaF3; assay: Proliferation of TEL-KIT/V559G-BaF3 cells (CCK-8); format: cell-based; conditions: Mus musculus; 72 hours, CCK-8; read-out: GI50 TEL-KIT/V559G-BaF3
From the text: as §1

[13] = tested on: TEL-KIT/T670I/V559D-BaF3; assay: Proliferation of TEL-KIT/T670I/V559D-BaF3 cells (CCK-8); format: cell-based; conditions: Mus musculus; 72 hours, CCK-8; read-out: GI50 TEL-KIT/T670I/V559D-BaF3
From the text: as §1

[14] = tested on: TEL-KIT/T670E-BaF3; assay: Proliferation of TEL-KIT/T670E-BaF3 cells (CCK-8); format: cell-based; conditions: Mus musculus; 72 hours, CCK-8; read-out: GI50 TEL-KIT/T670E-BaF3
From the text: as §1

[15] = tested on: TEL-KIT/D820G-BaF3; assay: Proliferation of TEL-KIT/D820G-BaF3 cells (CCK-8); format: cell-based; conditions: Mus musculus; 72 hours, CCK-8; read-out: GI50 TEL-KIT/D820G-BaF3
From the text: as §1

[16] = tested on: TEL-KIT/S709F-BaF3; assay: Proliferation of TEL-KIT/S709F-BaF3 cells (CCK-8); format: cell-based; conditions: Mus musculus; 72 hours, CCK-8; read-out: GI50 TEL-KIT/S709F-BaF3
From the text: as §1

[17] = tested on: TEL-KIT/D820E-BaF3; assay: Proliferation of TEL-KIT/D820E-BaF3 cells (CCK-8); format: cell-based; conditions: Mus musculus; 72 hours, CCK-8; read-out: GI50 TEL-KIT/D820E-BaF3
From the text: as §1

[18] = tested on: TEL-KIT/V654A/V559D-BaF3; assay: Proliferation of TEL-KIT/V654A/V559D-BaF3 cells (CCK-8); format: cell-based; conditions: Mus musculus; 72 hours, CCK-8; read-out: GI50 TEL-KIT/V654A/V559D-BaF3
From the text: as §1

[19] = tested on: TEL-KIT/Y823D-BaF3; assay: Proliferation of TEL-KIT/Y823D-BaF3 cells (CCK-8); format: cell-based; conditions: Mus musculus; 72 hours, CCK-8; read-out: GI50 TEL-KIT/Y823D-BaF3
From the text: as §1

[20] = tested on: TEL-KIT/V559A-BaF3; assay: Proliferation of TEL-KIT/V559A-BaF3 cells (CCK-8); format: cell-based; conditions: Mus musculus; 72 hours, CCK-8; read-out: GI50 TEL-KIT/V559A-BaF3
From the text: as §1

- GI50 [1]: 1410 nM
- GI50 [2]: 651 nM
- GI50 [3]: 3 nM
- GI50 [5]: 580 nM
- GI50 [6]: 1470 nM
- GI50 [8]: 435 nM
- GI50 [9]: 174 nM
- GI50 [10]: 10 nM
- GI50 [11]: > 10000 nM
- GI50 [12]: 8 nM
- GI50 [13]: > 10000 nM
- GI50 [14]: 4080 nM
- GI50 [15]: 337 nM
- GI50 [16]: 115 nM
- GI50 [17]: 35 nM
- GI50 [18]: 608 nM
- GI50 [19]: 5870 nM
- GI50 [20]: 905 nM
Compound: Cc1ccc(NC(=O)c2ccc(CN3CCN(C)CC3)cc2)cc1Nc1nccc(-c2cccnc2)n1 [Imatinib, reference compound]
- GI50 [4]: > 10000 nM
- GI50 [7]: 15 nM
